From patent publication US20230114728A1 (Venatorx Pharmaceuticals, Inc., priority 2019, published 2023)
Converted amounts (≈) assume the structure as drawn.

Tests used:
Format in all cases: cell-based
[1] = system: N. gonorrhoeae WHO Q; assay: Liquid broth MIC in Fastidious broth; conditions: Neisseria gonorrhoeae, read-out: Minimum Inhibitory Concentration, N. gonorrhoeae WHO Q
In short: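 Mosaic PBP2 producers; colonies from 24 h chocolate agar, saline suspension, OD600. Fastidious broth, 2-fold dilutions, 5×10^5 CFU/mL. ~24 h, 36 °C, 5% CO2; visual MIC, <10% growth cutoff.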

[2] = system: K. pneumoniae SI-117 producing VIM-1; assay: Broth microdilution MIC in CAMHB; conditions: Klebsiella pneumoniae, read-out: Minimum Inhibitory Concentration, K. pneumoniae SI-117
In short: (§1)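 CLSI microdilution; CAMHB; inoculum 2-8×10^5 CFU/mL from 3-5 h 37° C culture; 2-fold compound series; 16-20 h, 37° C; MIC = lowest well without visible growth.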

[3] = system: E. coli AG100A; assay: Broth microdilution MIC in CAMHB; conditions: Escherichia coli, read-out: Minimum Inhibitory Concentration, E. coli AG100A
In short: as §1

[4] = system: P. aeruginosa ATCC 27853; assay: Broth microdilution MIC in CAMHB; conditions: Pseudomonas aeruginosa, ATCC27853; MHB; read-out: Minimum Inhibitory Concentration, P. aeruginosa ATCC 27853
In short: as §1

[5] = system: E. coli 901C; assay: Broth microdilution MIC in CAMHB; conditions: Escherichia coli; E. coli 901C (hyper-permeable); MHB; read-out: Minimum Inhibitory Concentration, E. coli 901C
In short: as §1

[6] = system: P. aeruginosa ATCC 35151; assay: Broth microdilution MIC in CAMHB; conditions: Pseudomonas aeruginosa, ATCC35151; MHB; hyper-permeable strain; read-out: Minimum Inhibitory Concentration, P. aeruginosa ATCC 35151
In short: as §1

[7] = system: E. coli AG100; assay: Broth microdilution MIC in CAMHB; conditions: Escherichia coli; E. coli AG100 (wild-type parent); MHB; read-out: Minimum Inhibitory Concentration, E. coli AG100
In short: as §1

[8] = system: A. baumannii ATCC 19606; assay: Broth microdilution MIC in CAMHB; conditions: Acinetobacter baumannii, ATCC19606; MHB; read-out: Minimum Inhibitory Concentration, A. baumannii ATCC 19606
In short: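 MIC, read by eye, is the lowest compound concentration giving no bacterial growth after 16-20 h at 37° C. Test compounds are serially diluted 2-fold in CAMHB and seeded with 2-8×10^5 CFU/mL of bacteria taken from a 3-5 h shaking culture, following CLSI methods.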

[9] = system: P. aeruginosa (ΔmexAB-oprM); assay: Broth microdilution MIC in CAMHB; conditions: Pseudomonas aeruginosa, read-out: Minimum Inhibitory Concentration, P. aeruginosa ΔmexAB-OprM
In short: as §1

[10] = system: K. pneumoniae UMM producing SHV-5 and KPC-2; assay: Broth microdilution MIC in CAMHB; conditions: Klebsiella pneumoniae, read-out: Minimum Inhibitory Concentration, K. pneumoniae UMM
In short: as §1

[11] = system: E. coli ATCC 25922; assay: Broth microdilution MIC in CAMHB; conditions: Escherichia coli, ATCC25922; E. coli ATCC 25922; MHB; read-out: Minimum Inhibitory Concentration, E. coli 25922
In short: as §1

[12] = system: E. coli D22; assay: Broth microdilution MIC in CAMHB; conditions: Escherichia coli; E. coli D22 (hyper-permeable); MHB; read-out: Minimum Inhibitory Concentration, E. coli D22
In short: as §1

[13] = system: K. pneumoniae 848844 producing SHV-11 and KPC-2; assay: Broth microdilution MIC in CAMHB; conditions: Klebsiella pneumoniae, read-out: Minimum Inhibitory Concentration, K. pneumoniae 848844
In short: as §1

| Structure (SMILES) | MIC [1] [µg/mL] | MIC [2] [µg/mL] | MIC [3] [µg/mL] | MIC [4] [µg/mL] | MIC [5] [µg/mL] | MIC [6] [µg/mL] | MIC [7] [µg/mL] | MIC [8] [µg/mL] | MIC [9] [µg/mL] | MIC [10] [µg/mL] | MIC [11] [µg/mL] | MIC [12] [µg/mL] | MIC [13] [µg/mL] |
| --- | --- | --- | --- | --- | --- | --- | --- | --- | --- | --- | --- | --- | --- |
| CCN1CCN(C(=O)NC(C(=O)N[C@H]2Cc3cccc(C(=O)O)c3OB2O)c2cc(O)cc(O)c2)C(=O)C1=O (mixture of isomers) [Example 79, (3R)-3-(2-(3,5-dihydroxyphenyl)-2-(4-ethyl-2,3-dioxopiperazine-1-carboxamido)acetamido)-2-hydroxy-3,4-dihydro-2H-benzo[e][1,2]oxaborinine-8-carboxylic acid] | 4 to 8 | 32 to 64 | 2 to 4 | > 128 | < 0.25 | 0.5 to 1 | 8 to 16 | > 128 | 2 to 4 | 8 to 16 | 8 to 16 | 2 to 4 | 32 to 64 |
| CCN1CCN(C(=O)N[C@H](C(=O)N[C@H]2Cc3cccc(C(=O)O)c3OB2O)c2cc(O)cc(O)c2)C(=O)C1=O (single isomer, unassigned) [Example 81] | 16 to 32 (≈ 29.6 to 59.2 µM) | > 128 | 8 to 16 (≈ 14.8 to 29.6 µM) | > 128 | 0.5 to 1 (≈ 0.925 to 1.85 µM) | 2 to 4 (≈ 3.7 to 7.4 µM) | 32 to 64 (≈ 59.2 to 118 µM) | > 128 | 32 to 64 (≈ 59.2 to 118 µM) | > 128 | 32 to 64 (≈ 59.2 to 118 µM) | 8 to 16 (≈ 14.8 to 29.6 µM) | > 128 |
| CCN1CCN(C(=O)N[C@@H](C(=O)N[C@H]2Cc3cccc(C(=O)O)c3OB2O)c2cc(O)cc(O)c2)C(=O)C1=O (single isomer, unassigned) [Example 82] | 4 to 8 (≈ 7.4 to 14.8 µM) | 32 to 64 (≈ 59.2 to 118 µM) | 2 to 4 (≈ 3.7 to 7.4 µM) | > 128 | < 0.25 | < 0.25 | 8 to 16 (≈ 14.8 to 29.6 µM) | 32 to 64 (≈ 59.2 to 118 µM) | 32 to 64 (≈ 59.2 to 118 µM) | 32 to 64 (≈ 59.2 to 118 µM) | 32 to 64 (≈ 59.2 to 118 µM) | 2 to 4 (≈ 3.7 to 7.4 µM) | > 128 |
| NCCN1CCN(C(=O)N[C@H](C(=O)N[C@H]2Cc3cccc(C(=O)O)c3OB2O)c2ccc(C(=O)O)cc2)C(=O)C1=O (single isomer, unassigned) [Example 83] | > 64 | > 128 | 8 to 16 (≈ 14.1 to 28.2 µM) | 32 to 64 (≈ 56.4 to 113 µM) | < 0.25 | 0.5 to 1 (≈ 0.881 to 1.76 µM) | 32 to 64 (≈ 56.4 to 113 µM) | > 128 | 8 to 16 (≈ 14.1 to 28.2 µM) | 32 to 64 (≈ 56.4 to 113 µM) | 32 to 64 (≈ 56.4 to 113 µM) | 2 to 4 (≈ 3.53 to 7.05 µM) | > 128 |
| NCCN1CCN(C(=O)N[C@@H](C(=O)N[C@H]2Cc3cccc(C(=O)O)c3OB2O)c2ccc(C(=O)O)cc2)C(=O)C1=O (single isomer, unassigned) [Example 84] | 16 to 32 (≈ 28.2 to 56.4 µM) | > 128 | 2 to 4 (≈ 3.53 to 7.05 µM) | 32 to 64 (≈ 56.4 to 113 µM) | 0.5 to 1 (≈ 0.881 to 1.76 µM) | 0.5 to 1 (≈ 0.881 to 1.76 µM) | 8 to 16 (≈ 14.1 to 28.2 µM) | > 128 | 8 to 16 (≈ 14.1 to 28.2 µM) | 8 to 16 (≈ 14.1 to 28.2 µM) | 8 to 16 (≈ 14.1 to 28.2 µM) | 2 to 4 (≈ 3.53 to 7.05 µM) | 32 to 64 (≈ 56.4 to 113 µM) |
| NCCN1CCN(C(=O)N[C@H](C(=O)N[C@H]2Cc3cccc(C(=O)O)c3OB2O)c2ccc(O)cc2Cl)C(=O)C1=O (single isomer, unassigned) [Example 85] | > 64 | > 128 | 32 to 64 (≈ 55.8 to 112 µM) | > 128 | 8 to 16 (≈ 13.9 to 27.9 µM) | 2 to 4 (≈ 3.49 to 6.97 µM) | > 128 | > 128 | 32 to 64 (≈ 55.8 to 112 µM) | > 128 | > 128 | 32 to 64 (≈ 55.8 to 112 µM) | > 128 |
| NCCN1CCN(C(=O)N[C@@H](C(=O)N[C@H]2Cc3cccc(C(=O)O)c3OB2O)c2ccc(O)cc2Cl)C(=O)C1=O (single isomer, unassigned) [Example 86] | > 64 | 32 to 64 (≈ 55.8 to 112 µM) | 2 to 4 (≈ 3.49 to 6.97 µM) | > 128 | 2 to 4 (≈ 3.49 to 6.97 µM) | 0.5 to 1 (≈ 0.871 to 1.74 µM) | 32 to 64 (≈ 55.8 to 112 µM) | > 128 | 8 to 16 (≈ 13.9 to 27.9 µM) | 32 to 64 (≈ 55.8 to 112 µM) | 32 to 64 (≈ 55.8 to 112 µM) | 8 to 16 (≈ 13.9 to 27.9 µM) | 32 to 64 (≈ 55.8 to 112 µM) |
| NCCN1CCN(C(=O)N[C@H](C(=O)N[C@H]2Cc3cccc(C(=O)O)c3OB2O)c2ccc(O)cc2F)C(=O)C1=O (single isomer, unassigned) [Example 88] | > 64 | > 128 | 32 to 64 (≈ 57.4 to 115 µM) | > 128 | 8 to 16 (≈ 14.4 to 28.7 µM) | 2 to 4 (≈ 3.59 to 7.18 µM) | > 128 | > 128 | > 128 | > 128 | > 128 | 32 to 64 (≈ 57.4 to 115 µM) | > 128 |
| NCCN1CCN(C(=O)N[C@@H](C(=O)N[C@H]2Cc3cccc(C(=O)O)c3OB2O)c2ccc(O)cc2F)C(=O)C1=O (single isomer, unassigned) [Example 89] | > 64 | 32 to 64 (≈ 57.4 to 115 µM) | 2 to 4 (≈ 3.59 to 7.18 µM) | > 128 | 2 to 4 (≈ 3.59 to 7.18 µM) | 0.5 to 1 (≈ 0.897 to 1.79 µM) | 32 to 64 (≈ 57.4 to 115 µM) | > 128 | 8 to 16 (≈ 14.4 to 28.7 µM) | 32 to 64 (≈ 57.4 to 115 µM) | 32 to 64 (≈ 57.4 to 115 µM) | 8 to 16 (≈ 14.4 to 28.7 µM) | 32 to 64 (≈ 57.4 to 115 µM) |
| CCN1CCN(C(=O)N[C@@H](C(=O)N[C@H]2Cc3cccc(C(=O)O)c3OB2O)c2cc(Cl)c(O)cc2Cl)C(=O)C1=O (single isomer, unassigned) [Example 91] | 16 to 32 (≈ 27 to 53.9 µM) | > 128 | 2 to 4 (≈ 3.37 to 6.74 µM) | > 128 | < 0.25 | 0.5 to 1 (≈ 0.843 to 1.69 µM) | 8 to 16 (≈ 13.5 to 27 µM) | > 128 | 32 to 64 (≈ 53.9 to 108 µM) | 32 to 64 (≈ 53.9 to 108 µM) | 32 to 64 (≈ 53.9 to 108 µM) | 2 to 4 (≈ 3.37 to 6.74 µM) | > 128 |
| CCN1CCN(C(=O)NC(C(=O)N[C@H]2Cc3ccc(OCCN)c(C(=O)O)c3OB2O)c2ccccc2)C(=O)C1=O (stereo partly drawn) [Example 60, (3R)-7-(2-aminoethoxy)-3-(2-(4-ethyl-2,3-dioxopiperazine-1-carboxamido)-2-phenylacetamido)-2-hydroxy-3,4-dihydro-2H-benzo[e][1,2]oxaborinine-8-carboxylic acid] | > 64 | > 128 | 32 to 64 (≈ 56.4 to 113 µM) | – | 8 to 16 (≈ 14.1 to 28.2 µM) | 2 to 4 (≈ 3.53 to 7.05 µM) | > 128 | > 128 | 32 to 64 (≈ 56.4 to 113 µM) | > 128 | > 128 | 32 to 64 (≈ 56.4 to 113 µM) | > 128 |
